Counter-ions that a name gives are not always drawn. Like-named read-outs stand apart in the source and are kept apart here.
Assays:
[1] = Kölle 1983; cited from earlier work
Hypertonie [2] = conditions: for Senkung der Herzfrequenz / Senkung des systolischen Blutdrucks im Sitzen: 3 weeks; for Abnahme des diastolischen Blutdrucks: after 3 weeks vs end of placebo phase, depending on time of measurement; for Response-Rate zum Zeitpunkt 8 Uhr: pre-dose; for globale Response-Rate (Anteil der Patienten mit Response zu allen drei Meßzeitpunkten): response = diastolic decrease of at least 10 mmHg or below 90 mmHg; for DBD sitzend / DBD stehend / HR sitzend / SBD sitzend / SBD stehend / HR stehend: mean (SD)
From the text: Die Patienten befanden sich stationär in Reha-Kliniken.
Nach Absetzen einer eventuellen antihypertensiven Vorbehandlung erhielten die Patienten zunächst 1 Woche Placebo.
Zur Beurteilung der Wirksamkeit wurde der diastolische Blutdruck im Sitzen zu 3 verschiedenen Tageszeiten (8, 11 und 17 Uhr) herangezogen. "Response" war definiert als eine Senkung des diastolischen Blutdrucks um mindestens 10 mmHg oder unter einen Wert von 90 mmHg.

Hypertonie [3] = conditions: for Response-Rate / Senkung des mittleren systolischen Blutdrucks im Sitzen: 8 weeks; for Senkung des diastolischen Blutdrucks im Sitzen: after 8 weeks vs placebo phase, morning pre-dose, mean; for DBD sitzend / DBD stehend / HR sitzend / HR stehend / SBD sitzend / SBD stehend: mean (SD)
Method: In diese multizentrische randomisierte Doppelblind-Parallel-Studie wurden wiederum Hypertoniker der WHO-Klasse I-III eingeschlossen, deren diastolischer Blutdruck am Ende der Placebophase höher als 95 mmHg war. Einer 2-wöchigen Placebophase folgte eine Behandlungsphase von 8 Wochen. Das Therapieschema von 1 x tgl. 180 mg bzw. 2 x tgl. 90 mg glich dem der vorangegangenen Studie. Zur Beurteilung der Wirksamkeit wurde die Senkung des diastolischen Blutdrucks bei der Messung am Morgen herangezogen, die jeweils nach 8 Wochen Behandlung erzielt worden war. Die Blutdruckmessung erfolgte wiederum vor der Medikation, um Aufschluß über die 24-h-Wirkung bei der einmal täglichen Behandlung zu erhalten.

[4] = 5 p.m., 1 × 180 mg (n = 40), Basislinie (end of placebo phase)
[5] = 5 p.m., 1 × 180 mg (n = 40), Endpunkt (3 weeks)
[6] = 5 p.m., 2 × 90 mg (n = 42), Basislinie (end of placebo phase)
[7] = 5 p.m., 2 × 90 mg (n = 42), Endpunkt (3 weeks)
[8] = 8 a.m., 1 × 180 mg (n = 40), Basislinie (end of placebo phase)
[9] = 8 a.m., 1 × 180 mg (n = 40), Endpunkt (3 weeks)
[10] = 8 a.m., 2 × 90 mg (n = 42), Basislinie (end of placebo phase)
[11] = 8 a.m., 2 × 90 mg (n = 42), Endpunkt (3 weeks)
[12] = 11 a.m., 1 × 180 mg (n = 40), Basislinie (end of placebo phase)
[13] = 11 a.m., 1 × 180 mg (n = 40), Endpunkt (3 weeks)
[14] = 11 a.m., 2 × 90 mg (n = 42), Basislinie (end of placebo phase)
[15] = 11 a.m., 2 × 90 mg (n = 42), Endpunkt (3 weeks)
[16] = 1 × 180 mg (n = 30), Basislinie (end of placebo phase)
[17] = 1 × 180 mg (n = 30), Endpunkt (8 weeks)
[18] = 2 × 90 mg (n = 30), Basislinie (end of placebo phase)
[19] = 2 × 90 mg (n = 30), Endpunkt (8 weeks)

In the case of `COc1ccc([C@@H]2Sc3ccccc3N(CCN(C)C)C(=O)[C@@H]2OC(C)=O)cc1` [Diltiazem, Diltiazemhydrochlorid], the “Halbwertzeit für die Elimination, α-Phase” value [1] is given as 0,1 h, the “Halbwertzeit für die Elimination, β-Phase” value [1] is given as 2,1 h and the “Halbwertzeit für die Elimination, γ-Phase” value [1] is given as 9,8 h. The “Senkung der Herzfrequenz” value (Hypertonie [2]; 1 x 180 mg group) was 4-8 Schläge pro Minute, the “Senkung des systolischen Blutdrucks im Sitzen” value (Hypertonie [2]; 1 x 180 mg group) was 19-22 mmHg and the “Abnahme des diastolischen Blutdrucks” value (Hypertonie [2]; 1 x 180 mg group) was 13-16 mmHg. For the same compound, the “Response-Rate zum Zeitpunkt 8 Uhr” value (Hypertonie [2]; 1 x 180 mg group) was 87,5%, the “globale Response-Rate (Anteil der Patienten mit Response zu allen drei Meßzeitpunkten)” value (Hypertonie [2]; 1 x 180 mg group) was 85% and the “Senkung der Herzfrequenz” value (Hypertonie [2]; 2 x 90 mg group) was 4-8 Schläge pro Minute. For the same compound, the “Senkung des systolischen Blutdrucks im Sitzen” value (Hypertonie [2]; 2 x 90 mg group) was 15-18 mmHg, the “Abnahme des diastolischen Blutdrucks” value (Hypertonie [2]; 2 x 90 mg group) was 13-16 mmHg and the “Response-Rate zum Zeitpunkt 8 Uhr” value (Hypertonie [2]; 2 x 90 mg group) was 81%. For the same compound, the “globale Response-Rate (Anteil der Patienten mit Response zu allen drei Meßzeitpunkten)” value (Hypertonie [2]; 2 x 90 mg group) was 62%, the DBD sitzend (Hypertonie [2]; [4]) was 99.2 (3.9) mmHg and the DBD stehend (Hypertonie [2]; [4]) was 101.0 (4.8) mmHg. The HR sitzend (Hypertonie [2]; [4]) was 76.5 (9.2) 1/min, the SBD sitzend (Hypertonie [2]; [4]) was 158.9 (16.1) mmHg and the SBD stehend (Hypertonie [2]; [4]) was 158.4 (16.3) mmHg. The DBD sitzend (Hypertonie [2]; [5]) was 85.2 (8.8) mmHg, the DBD stehend (Hypertonie [2]; [5]) was 88.8 (8.9) mmHg and the HR sitzend (Hypertonie [2]; [5]) was 70.0 (7.2) 1/min. The HR stehend (Hypertonie [2]; [5]) was 78.6 (7.7) 1/min, the SBD sitzend (Hypertonie [2]; [5]) was 140.2 (14.2) mmHg and the SBD stehend (Hypertonie [2]; [5]) was 138.5 (14.8) mmHg. For the same compound, the DBD sitzend (Hypertonie [2]; [6]) was 99.9 (5.9) mmHg, the DBD stehend (Hypertonie [2]; [6]) was 102.5 (5.8) mmHg and the HR sitzend (Hypertonie [2]; [6]) was 77.0 (8.4) 1/min. The SBD stehend (Hypertonie [2]; [6]) was 156.7 (15.0) mmHg, the DBD sitzend (Hypertonie [2]; [7]) was 87.0 (10.7) mmHg and the DBD stehend (Hypertonie [2]; [7]) was 87.7 (9.2) mmHg. The HR sitzend (Hypertonie [2]; [7]) was 72.1 (8.1) 1/min, the HR stehend (Hypertonie [2]; [7]) was 79.6 (9.1) 1/min and the SBD stehend (Hypertonie [2]; [7]) was 138.6 (15.1) mmHg. For the same compound, the DBD sitzend (Hypertonie [2]; [8]) was 98.3 (3.9) mmHg, the DBD stehend (Hypertonie [2]; [8]) was 100.1 (7.1) mmHg and the HR sitzend (Hypertonie [2]; [8]) was 76.8 (9.4) 1/min. For the same compound, the HR stehend (Hypertonie [2]; [8]) was 87.2 (11.0) 1/min, the SBD sitzend (Hypertonie [2]; [8]) was 161.3 (16.2) mmHg and the SBD stehend (Hypertonie [2]; [8]) was 158.6 (16.4) mmHg. The DBD sitzend (Hypertonie [2]; [9]) was 85.3 (8.3) mmHg, the DBD stehend (Hypertonie [2]; [9]) was 87.3 (9.8) mmHg and the HR sitzend (Hypertonie [2]; [9]) was 73.7 (7.1) 1/min. The HR stehend (Hypertonie [2]; [9]) was 80.6 (7.4) 1/min, the SBD stehend (Hypertonie [2]; [9]) was 141.0 (14.8) mmHg and the DBD sitzend (Hypertonie [2]; [10]) was 99.8 (5.2) mmHg. The DBD stehend (Hypertonie [2]; [10]) was 102.0 (5.8) mmHg, the HR sitzend (Hypertonie [2]; [10]) was 76.4 (9.6) 1/min and the SBD stehend (Hypertonie [2]; [10]) was 155.5 (17.9) mmHg. For the same compound, the DBD sitzend (Hypertonie [2]; [11]) was 83.9 (10.7) mmHg, the DBD stehend (Hypertonie [2]; [11]) was 88.5 (9.7) mmHg and the HR sitzend (Hypertonie [2]; [11]) was 72.1 (8.2) 1/min. For the same compound, the HR stehend (Hypertonie [2]; [11]) was 79.0 (8.0) 1/min, the SBD stehend (Hypertonie [2]; [11]) was 137.4 (16.1) mmHg and the DBD sitzend (Hypertonie [2]; [12]) was 98.5 (3.9) mmHg. The DBD stehend (Hypertonie [2]; [12]) was 100.5 (5.8) mmHg, the HR sitzend (Hypertonie [2]; [12]) was 75.1 (9.2) 1/min and the HR stehend (Hypertonie [2]; [12]) was 84.4 (9.5) 1/min. The SBD sitzend (Hypertonie [2]; [12]) was 159.2 (18.2) mmHg, the SBD stehend (Hypertonie [2]; [12]) was 157.9 (19.6) mmHg and the DBD sitzend (Hypertonie [2]; [13]) was 83.3 (8.2) mmHg. The DBD stehend (Hypertonie [2]; [13]) was 87.1 (8.3) mmHg, the HR sitzend (Hypertonie [2]; [13]) was 71.1 (7.0) 1/min and the HR stehend (Hypertonie [2]; [13]) was 78.8 (6.9) 1/min. The SBD sitzend (Hypertonie [2]; [13]) was 137.6 (12.2) mmHg, the SBD stehend (Hypertonie [2]; [13]) was 137.1 (14.2) mmHg and the DBD sitzend (Hypertonie [2]; [14]) was 100.2 (5.4) mmHg. The DBD stehend (Hypertonie [2]; [14]) was 102.9 (5.6) mmHg, the HR sitzend (Hypertonie [2]; [14]) was 76.0 (9.1) 1/min and the HR stehend (Hypertonie [2]; [14]) was 83.6 (10.4) 1/min. The SBD sitzend (Hypertonie [2]; [14]) was 158.1 (16.5) mmHg, the SBD stehend (Hypertonie [2]; [14]) was 155.8 (17.7) mmHg and the DBD sitzend (Hypertonie [2]; [15]) was 85.4 (9.5) mmHg. For the same compound, the DBD stehend (Hypertonie [2]; [15]) was 87.3 (10.6) mmHg, the HR sitzend (Hypertonie [2]; [15]) was 71.3 (7.8) 1/min and the HR stehend (Hypertonie [2]; [15]) was 78.6 (8.6) 1/min. The SBD sitzend (Hypertonie [2]; [15]) was 140.1 (15.8) mmHg, the SBD stehend (Hypertonie [2]; [15]) was 135.7 (15.5) mmHg and the Response-Rate (Hypertonie [3]; 1 x 180 mg group) was 80%. For the same compound, the “Senkung des diastolischen Blutdrucks im Sitzen” value (Hypertonie [3]; 1 x 180 mg group) was 13 mmHg, the “Senkung des mittleren systolischen Blutdrucks im Sitzen” value (Hypertonie [3]; 1 x 180 mg) was 16 mmHg and the DBD sitzend (Hypertonie [3]; [16]) was 100.7 (3.0) mmHg. The DBD stehend (Hypertonie [3]; [16]) was 98.7 (3.2) mmHg, the HR sitzend (Hypertonie [3]; [16]) was 72.5 (4.9) 1/min and the HR stehend (Hypertonie [3]; [16]) was 74.9 (6.3) 1/min. The SBD sitzend (Hypertonie [3]; [16]) was 175.1 (16.6) mmHg, the SBD stehend (Hypertonie [3]; [16]) was 169.7 (19.8) mmHg and the DBD sitzend (Hypertonie [3]; [17]) was 87.8 (9.1) mmHg. The DBD stehend (Hypertonie [3]; [17]) was 84.8 (9.2) mmHg, the HR sitzend (Hypertonie [3]; [17]) was 68.7 (4.4) 1/min and the HR stehend (Hypertonie [3]; [17]) was 71.3 (5.2) 1/min. For the same compound, the SBD sitzend (Hypertonie [3]; [17]) was 159.0 (18.8) mmHg, the SBD stehend (Hypertonie [3]; [17]) was 150.5 (26.6) mmHg and the Response-Rate (Hypertonie [3]; 2 x 90 mg group) was 70%. For the same compound, the “Senkung des diastolischen Blutdrucks im Sitzen” value (Hypertonie [3]; 2 x 90 mg group) was 12 mmHg, the “Senkung des mittleren systolischen Blutdrucks im Sitzen” value (Hypertonie [3]; 2 x 90 mg) was 10 mmHg and the DBD sitzend (Hypertonie [3]; [18]) was 99.1 (3.2) mmHg. The DBD stehend (Hypertonie [3]; [18]) was 99.0 (3.1) mmHg, the HR sitzend (Hypertonie [3]; [18]) was 73.5 (6.5) 1/min and the HR stehend (Hypertonie [3]; [18]) was 75.9 (7.5) 1/min. The SBD sitzend (Hypertonie [3]; [18]) was 169.4 (19.7) mmHg, the SBD stehend (Hypertonie [3]; [18]) was 168.5 (22.1) mmHg and the DBD sitzend (Hypertonie [3]; [19]) was 88.4 (8.0) mmHg. The DBD stehend (Hypertonie [3]; [19]) was 86.9 (8.6) mmHg, the HR sitzend (Hypertonie [3]; [19]) was 69.8 (6.0) 1/min and the HR stehend (Hypertonie [3]; [19]) was 72.5 (7.0) 1/min. For the same compound, the SBD sitzend (Hypertonie [3]; [19]) was 159.2 (23.7) mmHg and the SBD stehend (Hypertonie [3]; [19]) was 156.7 (28.4) mmHg.

From patent EP0315197B1 (GÖDECKE AKTIENGESELLSCHAFT, priority 1987, dated 1989)
